Experimental data: the NIST ThermoML archive (doi:10.1021/je8003782)
Several values for one entry are separate records, joined by “and”; a condition that tells them apart may be missing. Equal entries are not always repeated. Numbers after ± are expanded uncertainties.

Tests used:
[1] = 101.3 kPa, Liquid
[2] = xn = mol fraction of the nth substance listed; settings: 101 kPa, Liquid

CC(=O)O [acetic acid]
[1]
Settings	mass density	viscosity
293.15 K	1049.42 ± 0.86 kg/m3 and 1049.42 ± 1.7 kg/m3	1.204 ± 0.017 mPa·s and 1.204 ± 0.029 mPa·s
298.15 K	1043.76 ± 0.82 kg/m3 and 1043.76 ± 1.6 kg/m3	1.114 ± 0.016 mPa·s and 1.114 ± 0.027 mPa·s
303.15 K	1038.1 ± 0.79 kg/m3 and 1038.1 ± 1.5 kg/m3	1.037 ± 0.016 mPa·s and 1.037 ± 0.026 mPa·s
308.15 K	1032.44 ± 0.75 kg/m3 and 1032.44 ± 1.4 kg/m3	0.964 ± 0.015 mPa·s and 0.964 ± 0.024 mPa·s
313.15 K	1026.77 ± 0.72 kg/m3 and 1026.77 ± 1.4 kg/m3	0.902 ± 0.015 mPa·s and 0.902 ± 0.023 mPa·s
318.15 K	1021.11 ± 0.68 kg/m3 and 1021.11 ± 1.3 kg/m3	0.841 ± 0.014 mPa·s and 0.841 ± 0.022 mPa·s
323.15 K	1015.44 ± 0.64 kg/m3 and 1015.44 ± 1.2 kg/m3	0.787 ± 0.014 mPa·s and 0.787 ± 0.021 mPa·s
328.15 K	1009.77 ± 0.61 kg/m3 and 1009.77 ± 1.2 kg/m3	0.741 ± 0.013 mPa·s and 0.741 ± 0.02 mPa·s
333.15 K	1004.09 ± 0.57 kg/m3 and 1004.09 ± 1.1 kg/m3	0.697 ± 0.013 mPa·s and 0.697 ± 0.019 mPa·s
338.15 K	998.38 ± 0.56 kg/m3	0.657 ± 0.013 mPa·s

CC(=O)O [acetic acid] + C1N2CN3CN1CN(C2)C3
[2], x2 = 0
Settings	mass density [kg/m3]	viscosity [mPa·s]
293.15 K	1049.42 ± 1.7	1.204 ± 0.029
298.15 K	1043.76 ± 1.6	1.114 ± 0.027
303.15 K	1038.1 ± 1.5	1.037 ± 0.026
308.15 K	1032.44 ± 1.4	0.964 ± 0.024
313.15 K	1026.77 ± 1.4	0.902 ± 0.023
318.15 K	1021.11 ± 1.3	0.841 ± 0.022
323.15 K	1015.44 ± 1.2	0.787 ± 0.021
328.15 K	1009.77 ± 1.2	0.741 ± 0.02
333.15 K	1004.09 ± 1.1	0.697 ± 0.019

CC(=O)O [acetic acid] + CC(=O)OC(C)=O
[2], x1 = 1
Settings	mass density [kg/m3]	viscosity [mPa·s]
293.15 K	1049.42 ± 0.86	1.204 ± 0.017
298.15 K	1043.76 ± 0.82	1.114 ± 0.016
303.15 K	1038.1 ± 0.79	1.037 ± 0.016
308.15 K	1032.44 ± 0.75	0.964 ± 0.015
313.15 K	1026.77 ± 0.72	0.902 ± 0.015
318.15 K	1021.11 ± 0.68	0.841 ± 0.014
323.15 K	1015.44 ± 0.64	0.787 ± 0.014
328.15 K	1009.77 ± 0.61	0.741 ± 0.013
333.15 K	1004.09 ± 0.57	0.697 ± 0.013
338.15 K	998.38 ± 0.56	0.657 ± 0.013

CC(=O)OC(C)=O [ethanoic anhydride]
[1]
Settings	mass density [kg/m3]	viscosity [mPa·s]
293.15 K	1080.89 ± 1.5	0.888 ± 0.016
298.15 K	1074.8 ± 1.5	0.829 ± 0.015
303.15 K	1068.7 ± 1.4	0.778 ± 0.015
308.15 K	1062.61 ± 1.4	0.729 ± 0.014
313.15 K	1056.49 ± 1.4	0.688 ± 0.014
318.15 K	1050.38 ± 1.3	0.648 ± 0.014
323.15 K	1044.24 ± 1.3	0.61 ± 0.013
328.15 K	1038.07 ± 1.2	0.58 ± 0.013
333.15 K	1031.9 ± 1.2	0.548 ± 0.013
338.15 K	1025.7 ± 1.1	0.521 ± 0.013
